From US7655690B2, “1-sulfonylindole derivatives, their preparation and their use as 5-HT6 ligands” (Laboratorios del Dr. Esteve S.A., priority 2004, dated 2010)
Counter-ions that a name gives are not always drawn.

melting point [°C] | SMILES
263 | O=S(=O)(C1CCCCC1)n1cc(C2=CCN3CCCC3C2)c2cc(F)ccc21 (stereo not shown) (as salt: hydrochloride) [Example 4, 1-Cyclohexanesulfonyl-5-fluoro-3-(1,2,3,5,8,8a-hexahydro-indolizine-7-yl)-1H-indole hydrochloride]
155 to 160 | CN1CC=C(c2cn(S(=O)(=O)C3CCCCC3)c3ccc([N+](=O)[O-])cc23)CC1 [Example 1, 1-Cyclohexanesulfonyl-3-(1-methyl-1,2,3,6-tetrahydropyridine-4-yl)-5-nitro-1H-indole]
88 to 90 | CN1CC=C(c2cn(S(=O)(=O)C3CCCCC3)c3ccc(Cl)cc23)CC1 [Example 2, 5-Chloro-1-cyclohexanesulfonyl-3-(1-methyl-1,2,3,6-tetrahydropyridine-4-yl)-1H-indole]
75 | CN1CC=C(c2cn(S(=O)(=O)C3CCCCC3)c3ccc(N)cc23)CC1 [Example 3, 5-Amino-1-cyclohexanesulfonyl-3-(1-methyl-1,2,3,6-tetrahydropyridine-4-yl)-1H-indole]
